These results are taken from ChEMBL document CHEMBL1136903, “Spiroimidazolidinone NPC1L1 inhibitors. 1: Discovery by 3D-similarity-based virtual screening” (Bioorg Med Chem Lett, 2009).

Activity calls are given as the source filed them. The calls are words filed in the database; no cut-off is given here. Some results are limits rather than exact numbers.

The target in test [1] is T1, Niemann-Pick C1-like 1 protein (Canis lupus familiaris, UniProt A0MJA4).
T1 sequence (A0MJA4 whole entry): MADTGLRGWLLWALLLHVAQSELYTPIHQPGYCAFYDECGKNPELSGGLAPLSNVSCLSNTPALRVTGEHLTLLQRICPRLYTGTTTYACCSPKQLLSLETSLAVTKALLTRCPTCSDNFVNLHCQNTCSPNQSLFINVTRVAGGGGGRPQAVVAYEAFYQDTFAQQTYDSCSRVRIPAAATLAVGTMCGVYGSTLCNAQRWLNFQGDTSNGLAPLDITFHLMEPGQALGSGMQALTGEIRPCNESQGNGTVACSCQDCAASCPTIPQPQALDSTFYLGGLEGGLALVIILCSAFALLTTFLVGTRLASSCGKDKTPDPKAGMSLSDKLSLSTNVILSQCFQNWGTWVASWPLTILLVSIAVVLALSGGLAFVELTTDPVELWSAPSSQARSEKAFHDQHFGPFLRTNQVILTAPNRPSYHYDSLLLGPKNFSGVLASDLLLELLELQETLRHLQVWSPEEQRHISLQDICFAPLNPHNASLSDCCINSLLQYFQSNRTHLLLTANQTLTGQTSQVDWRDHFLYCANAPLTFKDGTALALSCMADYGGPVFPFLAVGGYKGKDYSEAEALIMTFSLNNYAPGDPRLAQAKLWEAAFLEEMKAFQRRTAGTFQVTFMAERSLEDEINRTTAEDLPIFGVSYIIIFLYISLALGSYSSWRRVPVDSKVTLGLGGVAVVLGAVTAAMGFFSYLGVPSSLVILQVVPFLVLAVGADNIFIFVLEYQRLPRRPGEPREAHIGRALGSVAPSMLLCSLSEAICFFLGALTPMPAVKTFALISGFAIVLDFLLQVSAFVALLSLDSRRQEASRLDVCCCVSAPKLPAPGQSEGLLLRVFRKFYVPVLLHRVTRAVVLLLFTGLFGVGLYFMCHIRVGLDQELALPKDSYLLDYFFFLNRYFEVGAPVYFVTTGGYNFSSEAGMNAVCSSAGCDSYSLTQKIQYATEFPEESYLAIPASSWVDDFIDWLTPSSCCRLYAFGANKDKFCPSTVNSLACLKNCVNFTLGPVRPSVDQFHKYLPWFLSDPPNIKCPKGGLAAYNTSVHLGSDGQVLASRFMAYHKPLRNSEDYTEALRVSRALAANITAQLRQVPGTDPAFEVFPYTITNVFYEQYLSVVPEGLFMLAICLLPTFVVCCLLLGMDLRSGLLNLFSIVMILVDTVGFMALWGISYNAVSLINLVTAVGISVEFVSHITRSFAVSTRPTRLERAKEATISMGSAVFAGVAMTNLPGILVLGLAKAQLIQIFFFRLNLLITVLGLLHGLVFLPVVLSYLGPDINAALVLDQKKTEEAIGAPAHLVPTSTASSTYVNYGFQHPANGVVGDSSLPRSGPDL
Briefly: Displacement of [35S](2S,3S,4S,5R,6S)-6-(4-((2S,3R)-3-((S)-3-(4-fluorophenyl)-3-hydroxypropyl)-1-(4-(3-(methylsulfonamido)prop-1-ynyl)phenyl)-4-oxoazetidin-2-yl)phenoxy)-3,4,5-trihydroxytetrahydro-2H-pyran-2-carboxylic acid from NPC1L1 in dog enterocyte brush border membrane.

The target of test [2] is T2, Niemann-Pick C1-like 1 protein (Macaca mulatta, UniProt A0MJA5).
T2 sequence (A0MJA5 whole entry): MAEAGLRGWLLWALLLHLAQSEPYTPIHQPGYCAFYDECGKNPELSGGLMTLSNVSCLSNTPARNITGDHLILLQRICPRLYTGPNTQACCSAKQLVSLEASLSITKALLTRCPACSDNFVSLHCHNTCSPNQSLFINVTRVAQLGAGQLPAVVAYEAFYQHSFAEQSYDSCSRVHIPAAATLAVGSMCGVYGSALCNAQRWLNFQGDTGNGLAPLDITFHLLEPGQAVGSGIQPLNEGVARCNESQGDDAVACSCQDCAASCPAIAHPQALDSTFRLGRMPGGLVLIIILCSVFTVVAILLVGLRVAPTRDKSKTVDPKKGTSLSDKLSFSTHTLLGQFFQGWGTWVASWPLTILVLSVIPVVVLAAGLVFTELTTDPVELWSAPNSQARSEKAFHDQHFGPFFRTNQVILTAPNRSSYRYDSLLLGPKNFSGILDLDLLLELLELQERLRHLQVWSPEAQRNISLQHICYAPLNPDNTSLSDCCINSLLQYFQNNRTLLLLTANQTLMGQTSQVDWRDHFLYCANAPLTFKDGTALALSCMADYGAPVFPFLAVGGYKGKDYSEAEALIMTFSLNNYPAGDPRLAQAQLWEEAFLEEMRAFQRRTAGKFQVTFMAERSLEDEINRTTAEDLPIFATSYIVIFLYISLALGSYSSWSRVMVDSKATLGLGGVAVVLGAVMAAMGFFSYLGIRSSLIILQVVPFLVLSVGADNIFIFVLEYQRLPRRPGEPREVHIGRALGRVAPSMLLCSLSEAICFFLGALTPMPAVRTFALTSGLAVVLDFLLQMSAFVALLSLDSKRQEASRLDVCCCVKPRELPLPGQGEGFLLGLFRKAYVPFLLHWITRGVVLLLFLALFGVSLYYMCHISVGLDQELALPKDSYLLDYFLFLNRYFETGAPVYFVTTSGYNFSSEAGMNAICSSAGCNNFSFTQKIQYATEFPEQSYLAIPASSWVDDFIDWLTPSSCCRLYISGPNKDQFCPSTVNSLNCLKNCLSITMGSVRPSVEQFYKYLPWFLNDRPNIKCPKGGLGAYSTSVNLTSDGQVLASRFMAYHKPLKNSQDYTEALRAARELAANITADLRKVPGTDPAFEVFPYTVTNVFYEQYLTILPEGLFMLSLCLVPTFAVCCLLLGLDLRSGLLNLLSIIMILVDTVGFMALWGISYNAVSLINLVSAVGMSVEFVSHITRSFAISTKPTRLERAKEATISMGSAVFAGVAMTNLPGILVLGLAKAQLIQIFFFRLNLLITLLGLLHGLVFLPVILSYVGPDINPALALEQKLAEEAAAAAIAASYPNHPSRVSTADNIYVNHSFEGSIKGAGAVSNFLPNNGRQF
Nature of the test: Displacement of [35S](2S,3S,4S,5R,6S)-6-(4-((2S,3R)-3-((S)-3-(4-fluorophenyl)-3-hydroxypropyl)-1-(4-(3-(methylsulfonamido)prop-1-ynyl)phenyl)-4-oxoazetidin-2-yl)phenoxy)-3,4,5-trihydroxytetrahydro-2H-pyran-2-carboxylic acid from NPC1L1 in rhesus monkey enterocyte brush border membrane.

The test system of test [3] is Mus musculus. Nature of the test: Inhibition of plasma [3H]cholesterol absorption in C57BL/6 mouse at 0.2 ml in 0.25% methocel suspension, po dosed 30 mins before [3H]cholesterol administration measured after 1.5 to 5 hrs. Type of test: functional, organism-based.
In test [4] the test system is Mus musculus. Briefly: Inhibition of liver [3H]cholesterol absorption in C57BL/6 mouse at 0.2 ml in 0.25% methocel suspension, po dosed 30 mins before [3H]cholesterol administration measured after 1.5 to 5 hrs. It counts as functional, organism-based.

Take `O=C([C@@H]1C[C@@H](c2ccccc2)CN1C(=O)c1ccccc1)N1CCC2(C=Cc3ccccc32)CC1`: the IC50 in test [1] is more than 500000 nM; in test [2], 146000 nM.

Regarding `O=C(O)[C@H]1O[C@@H](Oc2ccc([C@@H]3[C@@H](CC[C@H](O)c4ccc(F)cc4)C(=O)N3c3ccc(F)cc3)cc2)[C@H](O)[C@@H](O)[C@@H]1O`, the IC50 was 60 nM in test [1] and 30 nM in test [2].

Consider `CC(C)(C)c1ccc(C(=O)N2CCC3(CC2)C(=O)N(CC(=O)N2CCCCC2)CN3c2ccccc2)cc1`, for which the results for the IC50 in test [1] and in test [2] were 170000 nM and 77000 nM, respectively. The inhibition result in test [3] and in test [4] was “inactive” in each case.

Consider `CS(=O)(=O)NCC#CN1C(=O)[C@H](CC[C@H](O)c2ccc(F)cc2)[C@H]1c1ccc(O[C@@H]2O[C@H](C(=O)O)[C@@H](O)[C@H](O)[C@H]2O)cc1`, for which the IC50 in test [1] was 8 nM; in test [2] it was 20 nM.
